Structures are written as SMILES.

In the first test the target is T1, HEK cells stably transfected with tetracycline inducible hNR1 and hNR2A (Homo sapiens, UniProt Q05586+Q12879).
T1 construct: expressed in transfected cells; host or cells: HEK cells, stably transfected, tetracycline/doxycycline inducible
T1 sequence (Q12879 23-1464, other chains not shown): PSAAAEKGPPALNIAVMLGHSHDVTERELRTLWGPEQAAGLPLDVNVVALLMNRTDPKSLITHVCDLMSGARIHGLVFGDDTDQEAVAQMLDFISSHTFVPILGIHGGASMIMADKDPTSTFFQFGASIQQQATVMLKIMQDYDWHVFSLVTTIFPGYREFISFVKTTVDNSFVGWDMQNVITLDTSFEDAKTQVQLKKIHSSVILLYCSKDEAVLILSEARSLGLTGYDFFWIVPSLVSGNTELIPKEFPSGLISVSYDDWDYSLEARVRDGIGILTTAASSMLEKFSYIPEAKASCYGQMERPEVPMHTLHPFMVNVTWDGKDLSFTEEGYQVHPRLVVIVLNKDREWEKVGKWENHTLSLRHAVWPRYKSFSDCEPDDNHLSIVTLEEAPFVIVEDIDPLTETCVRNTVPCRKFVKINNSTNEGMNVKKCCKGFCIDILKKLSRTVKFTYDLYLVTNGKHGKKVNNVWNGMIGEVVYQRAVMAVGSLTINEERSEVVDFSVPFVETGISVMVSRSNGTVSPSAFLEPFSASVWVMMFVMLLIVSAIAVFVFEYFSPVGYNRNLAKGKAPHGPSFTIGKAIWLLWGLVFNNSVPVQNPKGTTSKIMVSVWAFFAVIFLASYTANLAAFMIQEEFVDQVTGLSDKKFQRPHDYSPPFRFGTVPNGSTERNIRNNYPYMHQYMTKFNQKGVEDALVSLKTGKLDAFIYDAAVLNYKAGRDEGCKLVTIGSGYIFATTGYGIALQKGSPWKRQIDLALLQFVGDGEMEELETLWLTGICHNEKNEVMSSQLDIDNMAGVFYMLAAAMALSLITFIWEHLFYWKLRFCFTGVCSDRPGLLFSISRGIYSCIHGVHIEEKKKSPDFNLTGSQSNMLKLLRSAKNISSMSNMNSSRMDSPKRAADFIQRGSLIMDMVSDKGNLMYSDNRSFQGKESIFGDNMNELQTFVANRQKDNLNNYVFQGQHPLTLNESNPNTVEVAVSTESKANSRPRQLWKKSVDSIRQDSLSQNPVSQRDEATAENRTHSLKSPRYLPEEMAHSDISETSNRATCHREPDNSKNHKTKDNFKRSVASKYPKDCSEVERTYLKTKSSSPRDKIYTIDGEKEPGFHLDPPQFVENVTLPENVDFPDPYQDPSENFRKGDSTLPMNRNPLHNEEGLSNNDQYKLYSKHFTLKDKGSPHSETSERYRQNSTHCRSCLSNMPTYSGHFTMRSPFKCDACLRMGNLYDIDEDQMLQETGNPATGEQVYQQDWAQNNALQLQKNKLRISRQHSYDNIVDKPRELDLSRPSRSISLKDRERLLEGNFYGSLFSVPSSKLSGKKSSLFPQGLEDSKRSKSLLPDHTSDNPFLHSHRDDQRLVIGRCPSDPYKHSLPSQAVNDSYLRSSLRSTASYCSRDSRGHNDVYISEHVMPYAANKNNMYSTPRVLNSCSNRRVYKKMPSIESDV
Description: Assay 1: Cell-Based Assay, cytosolic calcium response to positive allosteric modulators (with 30 μM glycine and 300 nM L-glutamate, EC30). The note with it: Table 2; cytosolic calcium response, with 30 μM glycine and 300 nM L-glutamate (EC30); — = no plateau was reached. In short, it runs like this:
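Cells induced 24 h with 7.5 μg mL^−1 doxycycline plus 500 μM (+)-ketamine, loaded 60 min at 37 °C with calcium dye in Mg-free HBSS (1.8 mM Ca, probenecid, 10 μM (+)-ketamine, pH 7.15). Peak RFU over 5 min after compound addition, scaled to 100 μM L-glutamate (100%) and 0 μM (0%); four-parameter Hill fit for EC50, max % if no plateau.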
One may read the EC50 as the concentration at which the effect is half-maximal. Regarding `CCNC(=O)c1c(C)sc2nc(Cc3cc(C#N)ccc3CCF)cc(=O)n12` [Example 21.61, 7-(5-cyano-2-(2-fluoroethyl)benzyl)-N-ethyl-2-methyl-5-oxo-5H-thiazolo[3,2-a]pyrimidine-3-carboxamide], the EC50 was found to be 33.1 µM. As for `CNC(=O)c1c(C)sc2nc(Cc3cccc(CF)c3F)cc(=O)n12` [Example 21.68, 7-[[2-fluoro-3-(fluoromethyl)phenyl]methyl]-N,2-dimethyl-5-oxo-thiazolo[3,2-a]pyrimidine-3-carboxamide], the EC50 was determined as 4.2 µM. The same measure, in the same setting: the value for `Cc1sc2nc(Cc3cccc(C#N)c3)cc(=O)n2c1C1CC1C#N` (stereo not drawn) [Example 23.1, 3-((3-(2-cyanocyclopropyl)-2-methyl-5-oxo-5H-thiazolo[3,2-a]pyrimidin-7-yl)methyl)benzonitrile] was 18.1 µM. In the case of `Cc1sc2nc(Cc3cccc(C#N)c3F)cc(=O)n2c1C1CC1C#N` (stereo not drawn) [Example 23.2, 3-((3-(2-cyanocyclopropyl)-2-methyl-5-oxo-5H-thiazolo[3,2-a]pyrimidin-7-yl)methyl)-2-fluorobenzonitrile], the EC50 came out at 2.6 µM. On the same count and under the same terms, the value for `Cc1sc2nc(Cc3cccc(C#N)n3)cc(=O)n2c1C1CC1C#N` (stereo not drawn) [Example 23.3, 6-((3-(2-cyanocyclopropyl)-2-methyl-5-oxo-5H-thiazolo[3,2-a]pyrimidin-7-yl)methyl)picolinonitrile] was 14.8 µM; that for `Cc1sc2nc(Cc3cccc(C#N)c3F)cc(=O)n2c1C1CC1` [Example 24.4, 3-((3-cyclopropyl-2-methyl-5-oxo-5H-thiazolo[3,2-a]pyrimidin-7-yl)methyl)-2-fluorobenzonitrile] was 15.3 µM.

Consider `Cc1sc2nc(Cc3cccc(C#N)c3F)cc(=O)n2c1-c1ccco1` [Example 24.8, 2-fluoro-3-((3-(furan-2-yl)-2-methyl-5-oxo-5H-thiazolo[3,2-a]pyrimidin-7-yl)methyl)benzonitrile], for which the EC50 is 8.9 µM. In the case of `Cc1sc2nc(Cc3cccc(C#N)c3F)cc(=O)n2c1C(=O)NCC(F)(F)F` [Example 25.1, 7-(3-cyano-2-fluorobenzyl)-2-methyl-5-oxo-N-(2,2,2-trifluoroethyl)-5H-thiazolo[3,2-a]pyrimidine-3-carboxamide], the EC50 came out at 18.7 µM. On the same count and under the same terms, the value for `Cc1sc2nc(Cc3cccc(C(F)(F)F)c3F)cc(=O)n2c1C(=O)NCC#N` [Example 25.2, N-(cyanomethyl)-7-(2-fluoro-3-(trifluoromethyl)benzyl)-2-methyl-5-oxo-5H-thiazolo[3,2-a]pyrimidine-3-carboxamide] was 15.2 µM; that for `Cc1sc2nc(Cc3cccc(C(F)(F)F)c3F)cc(=O)n2c1C#N` [Example 26.2, 7-(2-fluoro-3-(trifluoromethyl)benzyl)-2-methyl-5-oxo-5H-thiazolo[3,2-a]pyrimidine-3-carbonitrile] was 9 µM. On the same count and under the same terms, the value for `O=c1cc(Cn2nc(C(F)(F)F)cc2C2CC2)nc2sc3c(n12)CCC3` [Example 27.5, 10-{[5-cyclopropyl-3-(trifluoromethyl)-1H-pyrazol-1-yl]methyl}-7-thia-1,9-diazatricyclo[6.4.0.0^{2,6}]dodeca-2(6),8,10-trien-12-one] was 30.4 µM; that for `CC1(C)CCc2sc3nc(Cn4nc(C(F)(F)F)cc4C4CC4)cc(=O)n3c21` [Example 27.7, 10-{[5-cyclopropyl-3-(trifluoromethyl)-1H-pyrazol-1-yl]methyl}-3,3-dimethyl-7-thia-1,9-diazatricyclo[6.4.0.0^{2,6}]dodeca-2(6),8,10-trien-12-one] was 26.5 µM; that for `CC1(C)CCc2sc3nc(Cn4nc(C5CC5)cc4C(F)(F)F)cc(=O)n3c21` [Example 27.8, 10-{[3-cyclopropyl-5-(trifluoromethyl)-1H-pyrazol-1-yl]methyl}-3,3-dimethyl-7-thia-1,9-diazatricyclo[6.4.0.0^{2,6}]dodeca-2(6),8,10-trien-12-one] was 30.4 µM. The same measure, in the same setting: the figure for `CC(=O)c1c(C)sc2nc(Cc3cccc(C#N)c3F)cc(=O)n12` [Example 27.10, 3-((3-acetyl-2-methyl-5-oxo-5H-thiazolo[3,2-a]pyrimidin-7-yl)methyl)-2-fluorobenzonitrile] is 29.1 µM; for `Cc1sc2nc(Cc3cccc(C(F)(F)F)c3F)cc(=O)n2c1CO` [Example 27.14, 7-(2-fluoro-3-(trifluoromethyl)benzyl)-3-(hydroxymethyl)-2-methyl-5H-thiazolo[3,2-a]pyrimidin-5-one] it is 44.5 µM.

Staying with this test, now noted: Table 2; responses scaled relative to 100 μM L-glutamate maximal response (100%) and 0 μM L-glutamate (0%).
`CNC(=O)c1c(C)sc2nc(Cc3cc(F)ccc3F)cc(=O)n12` [Example 21.53, 7-[(2,5-difluorophenyl)methyl]-N,2-dimethyl-5-oxo-thiazolo[3,2-a]pyrimidine-3-carboxamide]: the Max % is listed as 49%. The same measure, in the same setting: the value for `CNC(=O)c1c(C)sc2nc(Cc3ccc(F)c(F)c3)cc(=O)n12` [Example 21.54, 7-[(3,4-difluorophenyl)methyl]-N,2-dimethyl-5-oxo-thiazolo[3,2-a]pyrimidine-3-carboxamide] was 46%. Same read-out and setting: the value for `CNC(=O)c1c(C)sc2nc(Cc3cccc(F)c3F)cc(=O)n12` [Example 21.55, 7-[(2,3-difluorophenyl)methyl]-N,2-dimethyl-5-oxo-thiazolo[3,2-a]pyrimidine-3-carboxamide] was 43.8%. In the case of `CNC(=O)c1c(C)sc2nc(Cc3ccc(Cl)cc3F)cc(=O)n12` [Example 21.56, 7-[(4-chloro-2-fluoro-phenyl)methyl]-N,2-dimethyl-5-oxo-thiazolo[3,2-a]pyrimidine-3-carboxamide], the Max % is listed as 41%. In the case of `CNC(=O)c1c(C)sc2nc(Cc3ccc(Cl)cc3Cl)cc(=O)n12` [Example 21.57, 7-[(2,4-dichlorophenyl)methyl]-N,2-dimethyl-5-oxo-thiazolo[3,2-a]pyrimidine-3-carboxamide], the Max % turned out to be 64.1%.

Take `CNC(=O)c1c(C)sc2nc(Cc3ccc(C)c(F)c3)cc(=O)n12` [Example 21.58, 7-[(3-fluoro-4-methyl-phenyl)methyl]-N,2-dimethyl-5-oxo-thiazolo[3,2-a]pyrimidine-3-carboxamide]: the Max % amounted to 46.1%.

Take `CNC(=O)c1c(C)sc2nc(Cc3ccc(F)cc3C(F)(F)F)cc(=O)n12` [Example 21.59, 7-[[4-fluoro-2-(trifluoromethyl)phenyl]methyl]-N,2-dimethyl-5-oxo-thiazolo[3,2-a]pyrimidine-3-carboxamide]: the Max % came out at 42.5%. Same read-out and setting: the figure for `CNC(=O)c1c(C)sc2nc(Cc3ccc(F)cc3C3CC3)cc(=O)n12` [Example 21.60, 7-[(2-cyclopropyl-4-fluoro-phenyl)methyl]-N,2-dimethyl-5-oxo-thiazolo[3,2-a]pyrimidine-3-carboxamide] is 78%; for `CCNC(=O)c1c(C)sc2nc(Cc3cc(C#N)ccc3CCF)cc(=O)n12` [Example 21.61, 7-(5-cyano-2-(2-fluoroethyl)benzyl)-N-ethyl-2-methyl-5-oxo-5H-thiazolo[3,2-a]pyrimidine-3-carboxamide] it is 131%.

Consider `CCNC(=O)c1c(C)sc2nc(Cc3cccc(C#N)c3Cl)cc(=O)n12` [Example 21.62, 7-(2-chloro-3-cyanobenzyl)-N-ethyl-2-methyl-5-oxo-5H-thiazolo[3,2-a]pyrimidine-3-carboxamide], for which the Max % is on record as 45.6%. Turning to `CCNC(=O)c1c(C)sc2nc(Cc3c(CC)ccc(F)c3F)cc(=O)n12` [Example 21.63, N-ethyl-7-(6-ethyl-2,3-difluorobenzyl)-2-methyl-5-oxo-5H-thiazolo[3,2-a]pyrimidine-3-carboxamide], the Max % is given as 124%. Same read-out and setting: the value for `CCNC(=O)c1c(C)sc2nc(Cc3cc(C#N)ccc3CC)cc(=O)n12` [Example 21.64, 7-(5-cyano-2-ethylbenzyl)-N-ethyl-2-methyl-5-oxo-5H-thiazolo[3,2-a]pyrimidine-3-carboxamide] was 120%. Still for that read-out and setting: the value for `CCNC(=O)c1c(C)sc2nc(Cc3cc(F)ccc3C3CC3)cc(=O)n12` [Example 21.65, 7-(2-cyclopropyl-5-fluorobenzyl)-N-ethyl-2-methyl-5-oxo-5H-thiazolo[3,2-a]pyrimidine-3-carboxamide] was 96.3%.

Consider `CCNC(=O)c1c(C)sc2nc(Cc3cc(C#N)ccc3C3CC3)cc(=O)n12` [Example 21.66, 7-(5-cyano-2-cyclopropylbenzyl)-N-ethyl-2-methyl-5-oxo-5H-thiazolo[3,2-a]pyrimidine-3-carboxamide], for which the Max % was 92.4%. As for `CCCc1ccc(F)cc1Cc1cc(=O)n2c(C(=O)NCC)c(C)sc2n1` [Example 21.67, N-ethyl-7-(5-fluoro-2-propylbenzyl)-2-methyl-5-oxo-5H-thiazolo[3,2-a]pyrimidine-3-carboxamide], the Max % came out at 75%.

For the compound `CNC(=O)c1c(C)sc2nc(Cc3cccc(CF)c3F)cc(=O)n12` [Example 21.68, 7-[[2-fluoro-3-(fluoromethyl)phenyl]methyl]-N,2-dimethyl-5-oxo-thiazolo[3,2-a]pyrimidine-3-carboxamide], the Max % was 111%. Same read-out and setting: the value for `CCNC(=O)c1c(C)sc2nc(C(C)c3cccc(C(F)(F)F)c3F)cc(=O)n12` (stereo not drawn) [Example 22.1, N-ethyl-7-(1-(2-fluoro-3-(trifluoromethyl)phenyl)ethyl)-2-methyl-5-oxo-5H-thiazolo[3,2-a]pyrimidine-3-carboxamide] was 96.9%. On the same count and under the same terms, the value for `CCN(C)C(=O)c1c(C)sc2nc(Cc3cccc(C(F)(F)F)c3F)cc(=O)n12` [Example 22.2, N-ethyl-7-(2-fluoro-3-(trifluoromethyl)benzyl)-N,2-dimethyl-5-oxo-5H-thiazolo[3,2-a]pyrimidine-3-carboxamide] was 41.4%; that for `Cc1sc2nc(Cc3cccc(C#N)n3)cc(=O)n2c1C1CC1C#N` (stereo not drawn) [Example 23.3, 6-((3-(2-cyanocyclopropyl)-2-methyl-5-oxo-5H-thiazolo[3,2-a]pyrimidin-7-yl)methyl)picolinonitrile] was 133%.

Still in this test, the particulars now being: Table 3; cytosolic calcium response, with 30 μM glycine and 300 nM L-glutamate (EC30); — = no plateau was reached.
Regarding `Cc1sc2nc(Cn3nc(C(F)(F)F)cc3Cl)cc(=O)n2c1C(C)C#N` (stereo not drawn) [Example 251A], the EC50 was found to be 2.62 µM. Same read-out and setting: the figure for `CNC(=O)c1c(C)sc2nc(Cc3cccc(C4CC4)c3F)cc(=O)n12` [compound 1, 7-[(3-cyclopropyl-2-fluoro-phenyl)methyl]-N,2-dimethyl-5-oxo-thiazolo[3,2-a]pyrimidine-3-carboxamide] is 0.932 µM.
